Data from patent publication US7442706B2, “Methods for treating sarcopenia with a growth hormone secretagogue” (priority 2006, dated 2008).

Legend:
[1] = orally active; cited from earlier work
[2] = Isokinetic muscle strength (Cybex II), knee and shoulder flexion and extension; format: in vivo, human; conditions: 12 months
Procedure: Isokinetic Muscle Strength. Concentric force during flexion and extension of the knee and shoulder were determined using an isokinetic dynamometer Cybex II (CSM, Inc., Boston, Mass.). (11) Six repetitions of maximal effort over 90 degrees at 60 degrees/second were performed with the mean of the last 5 repetitions computed by proprietary software. Total work (Newton metres) was calculated by multiplying the mean per repetition by 5. Correction for Height and Gender. All strength and function measurements were analyzed per kg of skeletal muscle (ASM). Baseline arm ASM and leg ASM were used for shoulder and knee strength, respectively; baseline TASM (sum of arms and legs) was used for the function tests.

[3] = Body water (TBW by deuterium dilution, ECW by bromide dilution, ICW by difference); format: in vivo, human; conditions: 12 months; expressed per kg FFM
Procedure: Body Water. Total body water (TBW) was measured using the deuterium oxide (D2O) dilution technique ((8) and extracellular water (ECW) by bromide dilution (10). Intracellular water (ICW) was assessed as the difference between TBW and ECW. To determine the relative relationships of total-, extra- and intra-cellular water, each component (in kg) was expressed per kg of FFM at each time point.

[4] = Glucose metabolism: insulin sensitivity by Quicki, hemoglobin A1c; format: in vivo, human
Procedure: Assays and Insulin Sensitivity. Plasma glucose was measured on a Beckman analyzer and insulin and total IGF-I were measured in the GCRC Core Laboratory on an Immulite 2000 (Diagnostic Products Corporation, Los Angeles, Calif.). Additional safety laboratory tests were performed by standard methods in the UVA Clinical Laboratories. Fasting insulin and glucose were used to estimate insulin sensitivity by the Quicki method (4).
(§1) In each of the 2 years, volunteers were seen monthly the first 3 months and every 3 months thereafter for a physical examination, documentation of medications and vital signs, routine laboratory tests and detailed questioning about possible side effects. Fasting blood glucose and hemoglobin Alc (HBAlc) were monitored for possible changes with MK-677 treatment, since increased blood glucose had been observed in previous studies (11;15).

[5] = Monitoring for adverse effects, PSA, mammograms, pap smears, routine laboratory tests; format: in vivo, human
Procedure: Healthy men and women 60 years and older were eligible to participate. A schematic of the study design and details of subject inclusion/exclusion criteria, screening, enrollment, and attrition are shown in FIG. 1. Volunteers were carefully screened by medical history and physical examination to rule out underlying disease and extensive laboratory testing was performed before and frequently throughout the study. Participants were asked to maintain their typical diet and exercise throughout the study and to report any illnesses, medical procedures or side effects. Annual mammograms and pap smears were performed in women and levels of prostate-specific antigen (PSA) were monitored in men.
as §1

GH [6] = assay: 24-h mean GH levels, blood sampled every 10 minutes for 24 hours, chemiluminescence assay, 2-year placebo-controlled trial; format: in vivo, human; conditions: for 24-h mean GH, mean (range) fold-change / 24-h mean GH level in a person: 25 mg p.o. daily; for 24-h mean GH, mean (range) fold-change: N=43, ratio of geometric means; for 24-h mean GH level in a person: baseline 0.37
Procedure: Sixty-five healthy men and women (±HRT) ages 60-81 years were enrolled in a 2-year study of MK-677 (25 mg p.o. daily) or placebo. In addition to GH and IGF-I, the primary endpoints were fat-free mass (FFM), by 4-compartment model and DXA, and abdominal visceral fat (AVF) by CT. Secondary endpoints included isokinetic strength, function and quality of life (QoL); all endpoints were assessed at baseline and every 6 months, with frequent monitoring for adverse effects.
This NIH-funded study was approved by the General Clinical Research Center (GCRC) and the University of Virginia Institutional Review Boards. All subjects gave written informed consent. A two-year, double-blind, placebo-controlled modified crossover trial of once-daily administration of an oral GH secretogogue (MK-677, 25 mg) to healthy older adults was performed.
During the first year, subjects were randomized to MK-677 or placebo treatment. In each of 3 groups (23 men, 25 women on hormone replacement therapy (HRT) and 17 women not on HRT), ⅔ received MK-677 and ⅓ received placebo. At the end of year 1, the subjects who received placebo were switched to MK-677 treatment (N= 2/0 in year 2); subjects who received MK-677 for the first year were randomized to continue MK-677 (N=20) or to placebo (N=19).
Growth hormone (GH) concentrations and pulsatile characteristics. Blood samples were obtained every 10 minutes for 24 hours for measurement of GH in a sensitive chemiluminescence assay (2); endogenous GH secretory dynamics were assessed using an automated multiple-parameter deconvolution method as previously reported (1;3).
The primary outcome data for the 6- and 12-month changes in FFM and AVF as well as for IGF-I and GH were analyzed via repeated measures ANCOVA. The FFM and AVF data were analyzed on the same scale as they were measured, while the IGF-I and GH data were transformed to the natural logarithmic scale before conducting the statistical analyses so that the variance and normality assumptions of the linear model were not violated.
Since the FFM and AVF data were analyzed on the same scale as initially measured, the 6- and 12-month changes are reported as a difference between arithmetic means; changes in IGF-I and GH data analyzed on the natural algorithmic scale are reported as a ratio of geometric means.

GH [7] = conditions: healthy older men and women; 25 mg p.o. daily; cited from earlier work

Structure (SMILES): CC(C)(N)C(=O)N[C@H](COCc1ccccc1)C(=O)N1CCC2(CC1)CN(S(C)(=O)=O)c1ccccc12.CS(=O)(=O)O [MK-677, N-[1(R)-[(1,2-dihydro-1-methanesulfonylspiro[3H-indole-3,4′-piperidin]-1′-yl)carbonyl]-2-(phenylmethyloxy)ethyl]-2-amino-2-methylpropanamide methanesulfonate]
- diet-induced catabolism [1]: reverses diet-induced catabolism
- shoulder flexion total work vs. placebo [2]: trend for prevention of this decline
- total work in knee extension or flexion or in shoulder extension, between groups [2]: no change
- changes in TBW, ECW or ICW vs. placebo [3]: no significant changes
- Insulin resistance estimated by Quicki ([4]; after 6 and 12 months of treatment, vs. placebo): increased significantly
- hemoglobin A1c levels ([4]; most subjects on MK-677): slight elevations
- serious side effects ([5]; daily treatment): without serious side effects
- mammograms, pap smears, routine laboratory tests ([5]; during the 2 years of the study): no changes
- time for appetite to return to normal ([5]; in about one-half the subjects): ≤ 3 months
- PSA levels ([5]; men): declined significantly
- transient muscle pain, subjects reporting ([5]; placebo 2/22): 14/43
- mild, transient edema, subjects reporting ([5]; placebo 6/22): 19/43
- increase in appetite, subjects reporting ([5]; placebo 8/22): 29/43
- Joint pain, subjects reporting ([5]; placebo 17/22): 25/43
- 24-h mean GH, mean (range) fold-change (GH [6]; 6 months): 1.9 (1.6-2.2) fold
- 24-h mean GH level in a person (GH [6]; 6 months): 1.0 µg/L
- 24-h mean GH, mean (range) fold-change (GH [6]; 12 months): 1.8 (1.6-2.0) fold
- 24-h mean GH level in a person (GH [6]; 12 months): 0.86 µg/L
- Deconvolution analysis of the increase in GH (GH [6]; secretion per peak vs. peak frequency): increased secretion per peak
- IGF-I and pulsatile GH release, previously reported (GH [7]): enhanced IGF-I and pulsatile GH release into the young adult normal range
